Laboratory results from patent publication US20190125745A1, “TREATMENT AND DIAGNOSIS OF CANCER” (Rgenix, Inc., priority 2014, published 2019).
Structures can show the parent of a compound that is named as a salt.

Assays:
[1] = target: T1, LXRβ (Homo sapiens, UniProt P55055); experiment: ligand sensing assay (LiSA), LXRβ; format: biochemical; details: hydrochloride
T1 sequence (P55055 1-460): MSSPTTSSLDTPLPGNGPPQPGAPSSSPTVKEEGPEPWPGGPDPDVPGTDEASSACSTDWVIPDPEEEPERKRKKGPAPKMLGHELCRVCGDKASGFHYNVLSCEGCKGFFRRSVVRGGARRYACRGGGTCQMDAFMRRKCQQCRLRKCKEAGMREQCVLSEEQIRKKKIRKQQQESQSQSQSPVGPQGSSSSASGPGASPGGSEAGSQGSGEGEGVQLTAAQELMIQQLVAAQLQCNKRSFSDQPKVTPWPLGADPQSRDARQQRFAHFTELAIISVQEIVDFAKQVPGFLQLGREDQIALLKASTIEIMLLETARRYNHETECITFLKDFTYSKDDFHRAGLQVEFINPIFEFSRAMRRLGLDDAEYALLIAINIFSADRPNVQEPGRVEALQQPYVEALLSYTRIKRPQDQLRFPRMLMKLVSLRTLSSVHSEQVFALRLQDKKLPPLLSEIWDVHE
Excerpt: As used herein, reference to the activity of an LXR agonist at LXRα and LXRβ refer to the activity as measured using the ligand sensing assay (LiSA) described in Spencer et al. Journal of Medicinal Chemistry 2001, 44, 886-897, incorporated herein by reference. […] For example, the methods of the invention can be performed using an LXRβ agonist having activity for LXRβ that is at least 3-fold greater than the activity of the agonist for LXRα, or having activity for LXRβ that is at least 10-fold greater than the activity of the agonist for LXRα, or having activity for LXRβ that is at least 100-fold greater than the activity of said agonist for LXRα, or having activity for LXRβ that is at least within 3-fold of the activity of the agonist for LXRα. The term “greater activity” in the LiSA assay refers to a lower EC50.

[2] = system: SK-Mel-334.2 primary human melanoma line; experiment: Subcutaneous SK-Mel-334.2 tumor growth in immunocompromised mice; format: in vivo; details: oral
Method: (§1) FIG. 4. Therapeutic LXR Activation Inhibits Melanoma Tumor Growth. […] Representative tumor images shown correspond to tumors extracted at the final day (d12). n=10-18 (A), 8-10 (B). (C-E) Primary tumor growth by 1×10^6 MeWo (C), […] SK-Mel-334.2 (D), and 2×10^6 SK-Mel-2 (E) human melanoma cells subcutaneously injected into immunocompromised mice. […] Tumor images shown correspond to last day of measurements. n=6-34 (C), 8 (D), 5 (E). (F) 5×10^4 B16F10 cells were injected subcutaneously into C57BL/6-WT mice. Upon tumor growth to 150 mm^3, mice were fed continuously with a control chow or a chow containing GW3965 (150 mg/kg), and tumor growth was measured daily. n=6-13. […] Tumor volume was calculated as (small diameter)^2×(large diameter)/2. […] Scale bars, 5 mm (A-D), 50 μm (J, K), 25 μm (L).

[3] = system: RCC human renal cancer cells, PANC1 human pancreatic cancer cells, H460 human lung cancer cells; experiment: Trans-well matrigel invasion of renal, pancreatic and lung cancer cells; format: cell-based; details: 1 μM, 72 hours
Method: FIG. 17. Treatment with the LXR agonist GW3965 inhibits In Vitro tumor cell invasion of renal cancer, pancreatic cancer, and lung cancer.
Following serum starvation, the cells were subjected to the trans-well invasion assay using a matrigel invasion chamber system (354480, BD Biosciences). Invasion chambers were pre-equilibrated prior to the assay by adding 0.5 mL of starvation media to the top and bottom wells. Meanwhile, cancer cells were trypsinized and viable cells were counted using trypan blue. Cancer cells were then resuspended at a concentration of 1×10^5 cells/1 mL starvation media, and 0.5 mL of cell suspension, containing 5×10^4 cells, was seeded into each trans-well. The invasion assay was allowed to proceed for 24 hours at 37′C. […] Following fixation, the inserts were washed in PBS and then cut out and mounted onto slides using VectaShield mounting medium containing DAPI nuclear stain (H-1000, Vector Laboratories). The basal side of each insert was imaged using an inverted fluorescence microscope (Zeiss Axiovert 40 CFL) at 5× magnification, and the number of DAPI-positive cells was quantified using ImageJ.

[4] = in vivo; cited from earlier work
[5] = system: MeWo human melanoma cells; experiment: Subcutaneous MeWo tumor growth in immunocompromised mice; format: in vivo; details: oral
Method: as §1

[6] = system: B16F10 mouse melanoma cells; experiment: Subcutaneous B16F10 tumor growth in C57BL/6 mice; format: in vivo
Method: as §1
The mice were palpated daily for tumor formation and after detection of tumors measuring […] in volume, the mice were assigned to a control chow or a chow containing each respective LXR agonist: LXR-623 (20 mg/kg/day), WO-2007-002563 Ex. 19 (100 mg/kg/day), WO-2010-0138598 Ex. 9 (10 mg/kg/day or 100 mg/kg/day), or SB742881 (100 mg/kg/day). The LXR drug compounds were formulated in the mouse chow by Research Diets, Inc. Tumor dimensions were measured using digital calipers, and tumor volume was calculated as (small diameter)^2×(large diameter)/2.

[7] = system: SK-Mel-239 vemurafenib-resistant clone cells; details: diet 100 mg/kg

O=C(O)Cc1cccc(OCCCN(Cc2cccc(C(F)(F)F)c2Cl)CC(c2ccccc2)c2ccccc2)c1 [GW3965 108, 3-[3-[N-(2-Chloro-3-trifluoromethylbenzyl)-(2,2-diphenylethyl)amino]propyloxy] phenylacetic acid hydrochloride]
greater activity for LXRβ compared to LXRα [1]: 6 fold
greater activity for LXRβ compared to LXRα ([1]; row): approximately 6 fold
inhibition of tumor growth, SK-Mel-334.2 [2]: 73%
tumor cell invasion in all three cancer types tested [3]: inhibition
crossing of the blood brain barrier [4]: can efficiently cross the blood brain barrier
inhibition of tumor growth, MeWo [5]: 70%
primary tumor growth in vivo (FIG. 4) ([6]; mouse, in vivo): inhibit
reduction in the growth of established large B16F10 tumors ([6]; tumors ~150 mm^3 at start, chow 150 mg/kg): roughly 50%
suppression of growth of the SK-Mel-239 vemurafenib-resistant line [7]: 72%
